# Measurements reported in ChEMBL document CHEMBL1156413, “New acylated triterpene saponins from Silene fortunei that modulate lymphocyte proliferation” (2002).
# Active and inactive are the calls of the source. The rule behind the calls is not given here.
# Assays:
# Jurkat [1] = assay: Cytotoxicity against human Jurkat cells at 5 to 10 uM; format: functional, cell-based
# Jurkat [2] = assay: Induction of apoptosis in human Jurkat cells assessed as early apoptotic cells at 10 uM after 18 hrs using annexin V-FITC staining by flow cytometry; format: functional, cell-based
# Jurkat [3] = assay: Cytotoxicity against human Jurkat cells up to 10 uM; format: functional, cell-based
# Jurkat [4] = assay: Immunomodulatory activity in human Jurkat cells assessed as stimulation index at 0.001 to 5 uM after 36 hrs by [3H]thymidine incorporation assay; format: functional
# Jurkat [5] = assay: Cytotoxicity against human Jurkat cells at 5 uM; format: functional, cell-based
# Jurkat [6] = assay: Induction of apoptosis in human Jurkat cells assessed as enhancement of early apoptotic cells population at 10 uM after 18 hrs using annexin V-FITC staining by flow cytometry relative to control; format: functional
# Jurkat [7] = assay: Immunomodulatory activity in human Jurkat cells after 36 hrs by [3H]thymidine incorporation assay; format: functional, cell-based
# Jurkat [8] = assay: Cytotoxicity against human Jurkat cells at 1 uM; format: functional, cell-based
smiles,measurement,setting,value
C[C@@H]1O[C@@H](O[C@H]2[C@H](OC(=O)[C@]34CCC(C)(C)C[C@H]3C3=CC[C@@H]5[C@@]6(C)CC[C@H](O[C@@H]7O[C@H](C(=O)O)[C@@H](O)[C@H](O)[C@H]7O[C@@H]7O[C@H](CO)[C@H](O)[C@H](O)[C@H]7O)[C@@](C)(C=O)[C@@H]6CC[C@@]5(C)[C@]3(C)C[C@H]4O)O[C@H](C)[C@H](O)[C@@H]2O)[C@H](O)[C@H](O)[C@H]1O,Activity,Jurkat [1],inactive
same,Activity,Jurkat [2],inactive
CC(=O)OC[C@H]1O[C@@H](O[C@H]2[C@@H](OC(C)=O)[C@@H](C)O[C@@H](OC(=O)[C@]34CCC(C)(C)C[C@H]3C3=CC[C@@H]5[C@@]6(C)CC[C@H](O[C@@H]7O[C@H](C(=O)O)[C@@H](O)[C@H](O)[C@H]7O[C@@H]7O[C@H](CO)[C@H](O)[C@H](O)[C@H]7O)[C@@](C)(C=O)[C@@H]6CC[C@@]5(C)[C@]3(C)C[C@H]4O)[C@@H]2O[C@@H]2O[C@@H](C)[C@H](O[C@@H]3OC[C@@H](O)[C@H](O[C@@H]4OC[C@H](O)[C@H](O)[C@H]4O[C@@H]4OC[C@H](O)[C@H](O)[C@H]4O)[C@H]3O)[C@@H](O)[C@H]2O)[C@H](O)[C@@H](O)[C@@H]1O,Activity,Jurkat [3],inactive
same,Activity,Jurkat [4],1.56
COc1ccc(/C=C/C(=O)O[C@@H]2[C@H](O)[C@@H](O[C@@H]3O[C@@H](C)[C@H](O)[C@@H](O)[C@H]3O)[C@H](OC(=O)[C@]34CCC(C)(C)C[C@H]3C3=CC[C@@H]5[C@@]6(C)CC[C@H](O[C@@H]7O[C@H](C(=O)O)[C@@H](O)[C@H](O)[C@H]7O[C@@H]7O[C@H](CO)[C@H](O)[C@H](O)[C@H]7O)[C@@](C)(C=O)[C@@H]6CC[C@@]5(C)[C@]3(C)C[C@H]4O)O[C@@H]2C)cc1 (mixture of isomers) [JENISSEENSOSIDE C/D],Activity,Jurkat [4],1.36
same,Activity,Jurkat [5],Active
same,fold change (FC),Jurkat [6],9
COc1ccc(/C=C/C(=O)O[C@@H]2[C@H](OC(C)=O)[C@@H](O[C@@H]3O[C@@H](C)[C@H](O)[C@@H](O)[C@H]3O)[C@H](OC(=O)[C@]34CCC(C)(C)C[C@H]3C3=CC[C@@H]5[C@@]6(C)CC[C@H](O[C@@H]7O[C@H](C(=O)O)[C@@H](O)[C@H](O)[C@H]7O[C@@H]7O[C@H](CO)[C@H](O)[C@H](O)[C@H]7O)[C@@](C)(C=O)[C@@H]6CC[C@@]5(C)[C@]3(C)C[C@H]4O)O[C@@H]2C)cc1,Activity,Jurkat [4],1.44
same,Activity,Jurkat [7],Dose-dependent effect
same,Activity,Jurkat [8],Active
same,fold change (FC),Jurkat [6],2.8
